{"source": "patent US8440638B2", "about": "“Compositions and methods for modulating calcium flux, glucose homeostasis and apoptosis” (Wisconsin Alumni Research Foundation, priority 2004, dated 2013)", "key": {"OAADPr esterase": {"tested_on": "OAADPr esterase", "assay": "Cytoplasmic OAADPr esterase activity in HEK-293 cytoplasmic extract", "assay_type": "biochemical", "protocol": "(§1) Shown is the development of whole cell currents over time in TRPM2-expressing HEK-293 cells. Bath solution was standard ringer's, and pipette solution was Cs-based and included 10 mM EGTA to buffer intracellular Ca^2+ to 10 nM. The patch pipette contained various concentrations of (FIG. 1a) ADPr, (FIG. 1b) OAADPr (FIG. 1c) OAADPr and puromycin as indicated in the figure. FIG. 1d.) Cytoplasmic OAADPr esterase activity is inhibited by puromycin. 200 μM O-[^3H]AADPr and 0-100 μM puromycin were added to cytoplasmic HEK-293 extract for 30 min. Percent hydrolysis of O-[^3H]AADPr to [^3H]acetate was measured as described hereinbelow. FIG. 1e.) Nuclear OAADPr acetyltransferase activity is not inhibited by puromycin. HEK-293 nuclear extract was incubated with 200 μM O-[^3H]AADPr in the presence or absence of 100 μM puromycin for 60 min. The reactions were quenched and resolved by HPLC. The radioactivity in collected fractions was determined by liquid scintillation counting. FIGS. 1f-g.) In vivo detection of OAADPr. Mass spectrum of HEK-293 generated OAADPr (peak m/z of 602.0894; the theoretical m/z for OAADPr is 602.0895) after puromycin treatment, with authentic [^13C]-OAADPr (peak m/z of 603.0851 and isotopic distribution of 604.0878 and 605.0928) as a standard. Peak 599.3691 is from the matrix.\nCytoplasmic and nuclear extracts were prepared from HEK-293 cells as previously described (22). To detect esterase activity (22), cytoplasmic extract was incubated with 200 μM O-[^3H]AADPr in the presence of 0-100 μM puromycin for 30 min. Activated charcoal slurry in PBS, pH 7.0 was added to quench the reaction and bind O-[^3H]AADPr. Samples were vortexed and centrifuged. Aliquots of the supernatant containing [^3H]acetate were removed and analyzed by liquid scintillation counting. To detect nuclear OAADPr metabolizing activity (22), nuclear extract was incubated with 200 μM O-[^3H]AADPr in the presence or absence of 100 μM puromycin for 60 min. The reaction was terminated by addition of TFA to 1%. […] Radioactivity in each elution fraction was measured by liquid scintillation counting."}, "[1]": {"tested_on": "nuclear acetyltransferase", "assay": "Nuclear OAADPr acetyltransferase (OAADPr-metabolizing) activity in HEK-293 nuclear extract", "assay_type": "biochemical", "conditions": "100 μM puromycin, 60 min", "protocol": "as §1, with “Mass spectrum of HEK-293 generated OAADPr (peak m/z of 602.0894; the theoretical m/z for OAADPr is 602.0895) after puromycin treatment, with authentic [^13C]-OAADPr (peak m/z of 603.0851 and isotopic distribution of 604.0878 and 605.0928) as a standard. Peak 599.3691 is from the matrix.” left out\nCytoplasmic and nuclear extracts were prepared from HEK-293 cells as previously described (22). […] Aliquots of the supernatant containing [^3H]acetate were removed and analyzed by liquid scintillation counting. […] Radioactivity in each elution fraction was measured by liquid scintillation counting."}, "[2]": {"tested_on": "TRPM2-expressing HEK-293 cells", "assay": "Cell viability assay (calcein fluorescence), tet-inducible TRPM2 HEK-293 cells", "assay_type": "cell-based", "protocol": "Shown are HEK-293 cells (closed diamond) and HEK-293 cells stably transfected with a tet-controlled TRPM2 construct in the presence (open squares) or absence of (open diamonds) tetracycline. […] TRPM2-expressing HEK-293 cells were grown in complete DMEM media and 1 μg/ml tetracycline until 80-90% confluent. One set of cells were re-fed with the same complete media (closed diamonds) and the other set of cells were rinsed with PBS and fed with modified media containing 1 μg/ml tetracycline, 5 mM EGTA and without calcium chloride (open squares). […] HEK-293 (close diamond) and TRPM2 expressing HEK-293 cells in the absence (open diamond) or presence of (closed square) tetracycline were exposed to 0-10 μg/ml cycloheximide for 16 h. Cell viability was determined as described in (a).\nTRPM2-expressing HEK-293 cells were exposed to 0-50 μM puromycin for 16 h in the presence (open diamond) or absence (closed diamond) of 500 μM nicotinamide. […] TRPM2-expressing HEK-293 cells were exposed to 0-50 μM puromycin for 16 h in the presence (open diamond) or absence (closed diamond) of 1.5 mM 3-aminobenzamide. Cell survival was determined as described in (a).\nHEK-293 and tetracycline (tet)-inducible HEK-293 TRPM2-expressing cells (23) were cultured in DMEM and 10% FBS at 37° C., 5% CO2. Media used to culture tet-inducible HEK-293 cells was supplemented with blasticidin (5 μg ml^−1; Invitrogen) and zeocin (0.4 mg/ml; Invitrogen). To induce expression of TRPM2 in recombinant HEK-293 cells, tetracycline was added to the media at 1 μg ml^−1 (Invitrogen) 24 h prior to experiments. The CRI-G1 rat β-islet tumor cell line was obtained from EACC and cultured in DMEM, 10% FBS and 2 mM glutamine.\nHEK-293, tet-inducible HEK-293, and CRI-G1 cells were seeded into 6 well plates at a density of 500,000 cells per well. When cells were 50-70% confluent, puromycin was added to the media at various concentrations for 16 hours. Cell monolayers were rinsed with PBS, after which 0.5 ml of 2 μM calcein in PBS was added directly to the well for 10-20 minutes. Calcein is retained in living, but not dead cells, where it undergoes catalytic conversion into a fluorescent compound Fluorescence in each well was measured in a microplate reader using excitation and emission filters at 485/530 nm, respectively."}, "pancreatic cells": {"tested_on": "pancreatic cells", "conditions": "not the result of inhibition of protein synthesis (ref. 47); cited from earlier work"}}, "data": [{"smiles": "COc1ccc(C[C@H](N)C(=O)N[C@H]2[C@@H](O)[C@H](n3cnc4c(N(C)C)ncnc43)O[C@@H]2CO)cc1", "note": "[puromycin]", "values": [{"measurement": "inhibition of cytosolic esterase activity", "setting": "OAADPr esterase; 5 μM puromycin", "result": "substantially inhibit"}, {"measurement": "inhibition of esterase activity", "setting": "OAADPr esterase; 80 μM puromycin", "result": "completely inhibited"}, {"measurement": "inhibition of OAADPr esterase", "setting": "OAADPr esterase; 200 μM O-[3H]AADPr, 0-100 μM puromycin, 30 min", "result": "potent inhibitor"}, {"measurement": "effect on nuclear OAADPr-metabolizing activity", "setting": "[1]", "result": "no effect"}, {"measurement": "puromycin-induced cell death in Ca2+-free media", "setting": "[2]; Ca2+ removed (5 mM EGTA) before puromycin 0-500 μM, 6 h", "result": "completely blocked"}, {"measurement": "puromycin-dependent cell death, TRPM2 not induced", "setting": "[2]; TRPM2 expression not induced by tet", "result": "nearly complete protection"}, {"measurement": "puromycin-dependent cell death, TRPM2 not induced, highest level", "setting": "[2]; not induced by tet, 50 μM puromycin", "result": "Some cell death"}, {"measurement": "cell death following puromycin treatment", "setting": "[2]; tet-induced TRPM2 expression, as little as 5 μM, dose-dependence up to 50 μM, 16 h", "result": "profound sensitivity to cell death"}, {"measurement": "effect of puromycin treatment in whole rat", "setting": "pancreatic cells", "result": "specific pancreatic cell death"}]}]}
